Where two headings read alike, the source gives them in different places.

The target of this assay is T1, Full-length glucokinase (beta cell isoform) (Homo sapiens, UniProt P35557).
T1 construct: Full-length glucokinase (beta cell isoform) was His-tagged at N-terminus; His tag (N); made in house
T1 sequence (P35557 1-465): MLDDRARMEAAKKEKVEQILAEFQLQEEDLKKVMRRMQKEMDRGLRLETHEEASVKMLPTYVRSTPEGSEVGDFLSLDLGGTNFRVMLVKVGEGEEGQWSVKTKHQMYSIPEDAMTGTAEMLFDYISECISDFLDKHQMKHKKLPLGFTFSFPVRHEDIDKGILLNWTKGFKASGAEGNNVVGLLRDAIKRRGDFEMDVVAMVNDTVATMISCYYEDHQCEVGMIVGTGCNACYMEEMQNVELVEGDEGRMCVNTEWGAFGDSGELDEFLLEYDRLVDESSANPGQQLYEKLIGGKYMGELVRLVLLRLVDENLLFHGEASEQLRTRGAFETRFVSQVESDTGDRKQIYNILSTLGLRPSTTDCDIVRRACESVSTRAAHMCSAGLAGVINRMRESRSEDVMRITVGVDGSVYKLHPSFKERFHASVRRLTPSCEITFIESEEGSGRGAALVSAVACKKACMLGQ
Put plainly: Glucokinase biochemical assay (PK/LDH-coupled, NADH depletion at 340 nm): % activation, EC50, % max activation. As to conditions: 5 mM glucose; for activation at 10 µM: read-out: % Activation at 10 uM; for EC50: GK activation, read-out: EC50; for Emax: fitted maximum activation, read-out: % Max Activation. A digest of the protocol: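 N-terminally His-tagged full-length human beta-cell glucokinase, room temperature, 5 mM glucose, 1 mM ATP, PK/LDH-coupled with 0.7 mM NADH, 1% DMSO final. Initial velocity from the 200–900 s slope of A340 decline. % activation = (Va/Vo−1)×100, measured across compound concentrations.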

Where [1] appears, read: 10 uM compound, % Activation=(Va/Vo−1)×100.
Setting [2] is: compound at 10 uM, 1 mM ATP, room temperature.

Broadly, the EC50 is the concentration giving half of the maximal effect. Regarding `Cc1cc2c(Oc3ccc(S(=O)(=O)N4CCC4)cc3)cc(C(=O)Nc3ccc(Cl)cn3)cc2o1` [Example 300, 4-(4-(Azetidin-1-ylsulfonyl)phenoxy)-N-(5-chloropyridin-2-yl)-2-methyl-benzofuran-6-carboxamide], the EC50 was determined as 710 nM and the Emax turned out to be 56%. Further, the activation at 10 µM under setting [1] came to 53.4%.

Turning to `Cn1ccc(NC(=O)c2cc(Oc3ccc(C(=O)N4CC[C@@H](F)C4)c(F)c3)c3c(c2)OC(C)(C)C3)n1` [Example 58, 4-[3-Fluoro-4-((R)-3-fluoro-pyrrolidine-1-carbonyl)-phenoxy]-2,2-dimethyl-2,3-dihydro-benzofuran-6-carboxylic acid(1-methyl-1H-pyrazol-3-yl)-amide], the EC50 worked out at 75 nM and the Emax turned out to be 88%. For the same compound, the activation at 10 µM under setting [1] came to 55.3%.

As to `Cc1ccc(NC(=O)c2cc(Oc3ccc(S(=O)(=O)N(C)C)c(F)c3)c3cc(C)oc3c2)nc1` [Example 304, 4-{4-[(Dimethylamino)sulfonyl]-3-fluorophenoxy}-2-methyl-N-(5-methyl-pyridin-2-yl)-1-benzofuran-6-carboxamide], the EC50 was determined as 240 nM and the Emax came to 89%. Also, the activation at 10 µM under setting [1] was found to be 94.6%.

Consider `CC(C)Oc1cc(C(=O)Nc2ccn(C)n2)cc2c1CC(CN(C)C)O2` (centres unmarked) [Example 218, 2-Dimethylaminomethyl-4-isopropoxy-2,3-dihydro-benzofuran-6-carboxylic acid (1-methyl-1H-pyrazol-3-yl)-amide], for which the EC50 is above 10000 nM. The activation at 10 µM under setting [1] came to 43.1%.

In the case of `Cc1cc2c(OC3CN(S(C)(=O)=O)C3)cc(C(=O)Nc3cnn(C)n3)cc2o1` [Example 325, 2-Methyl-4-{[1-(methylsulfonyl)azetidin-3-yl]oxy}-N-(2-methyl-2H-1,2,3-triazol-4-yl)-1-benzofuran-6-carboxamide], the EC50 was above 10000 nM. Further, the activation at 10 µM under setting [1] was 137%.

Regarding `Cc1ccc(NC(=O)c2cc(OCc3ccccc3)c3c(c2)C(=O)N(C2CC2)C3)nc1` [Example 378, 7-(Benzyloxy)-2-cyclopropyl-N-(5-methylpyridin-2-yl)-3-oxoisoindoline-5-carboxamide], the activation at 10 µM under setting [2] was -1.85%.

Turning to `Cc1cc2c(Oc3ccc(S(=O)(=O)N4CCC4)cc3)cc(C(=O)Nc3cnc(N(C)C)cn3)cc2o1` [Example 299, 4-(4-(Azetidin-1-ylsulfonyl)phenoxy)-N-(5-(dimethylamino)-pyrazin-2-yl)-2-methylbenzofuran-6-carboxamide], the EC50 was found to be 180 nM and the Emax is 107%. Further, under setting [1], the activation at 10 µM was found to be 106%.

On to `Cc1nc(COc2cc(C(=O)Nc3ccn(C)n3)cc3c2CC(C)(C)O3)cs1` [Example 90, 2,2-Dimethyl-4-(2-methyl-thiazol-4-ylmethoxy)-2,3-dihydro-benzofuran-6-carboxylic acid (1-methyl-1H-pyrazol-3-yl)-amide], for which the EC50 is 5600 nM and the Emax worked out at 138%. Under setting [1], the activation at 10 µM is 112%.

With `CNC(=O)c1ccc(Oc2cc(C(=O)Nc3ccn(C)n3)cc3c2CC(C)(C)O3)cn1` [Example 166, 5-[2,2-Dimethyl-6-(1-methyl-1H-pyrazol-3-ylcarbamoyl)-2,3-dihydro-benzofuran-4-yloxy]-pyridine-2-carboxylic acid methylamide], the 50% effective concentration (EC50) turned out to be 410 nM and the Emax stood at 212%. Besides, the activation at 10 µM under setting [1] amounted to 203%.

In the case of `C[C@@H](Cc1ccccc1)Oc1cc(C(=O)Nc2ccn(C)n2)cc2ccoc12` [Example 336, 7-[(1S)-1-Methyl-2-phenylethoxy]-N-(1-methyl-1H-pyrazol-3-yl)-1-benzofuran-5-carboxamide], the activation at 10 µM under setting [1] was 8.4%.

Turning to `Cn1ccc(NC(=O)c2cc(OCc3nc(-c4ccccn4)no3)c3c(c2)OC(C)(C)C3)n1` [Example 98, 2,2-Dimethyl-4-(3-pyridin-2-yl-[1,2,4]oxadiazol-5-ylmethoxy)-2,3-dihydro-benzofuran-6-carboxylic acid (1-methyl-1H-pyrazol-3-yl)-amide], the EC50 was found to be 1600 nM and the Emax was found to be 165%. Also, the activation at 10 µM under setting [1] came out at 154%.

For the compound `COCC1Cc2c(Oc3ccc(C(=O)N(C)C)cc3)cc(C(=O)Nc3ccn(C)n3)cc2O1` (centres unmarked) [Example 211, 4-(4-Dimethylcarbamoyl-phenoxy)-2-methoxymethyl-2,3-dihydro-benzofuran-6-carboxylic acid (1-methyl-1H-pyrazol-3-yl)-amide], the EC50 worked out at 1300 nM and the Emax amounted to 90%. Under setting [1], the activation at 10 µM was 83.5%.

Turning to `Cc1ccc(NC(=O)c2cc(Oc3ccc(S(=O)(=O)C4CC4)c(F)c3)c3c(c2)OC(C)(CO)C3)nc1` (single isomer, unassigned; (-)) [Example 402, (−)-4-(4-Cyclopropanesulfonyl-3-fluoro-phenoxy)-2-hydroxymethyl-2-methyl-2,3-dihydro-benzofuran-6-carboxylic acid(5-methyl-pyridin-2-yl)-amide], the “% Activation at 10 uM” value under setting [2] is listed as 19.9%.

Consider `Cn1ccc(NC(=O)c2cc(Oc3ccc(C(=O)N4CCC4)cc3)c3c(c2)OC(C(F)F)C3)n1` (centres unmarked) [Example 226, 4-[4-(Azetidine-1-carbonyl)-phenoxy]-2-difluoromethyl-2,3-dihydro-benzofuran-6-carboxylic acid (1-methyl-1H-pyrazol-3-yl)-amide], for which the EC50 amounted to 640 nM and the Emax was found to be 137%. Under setting [1], the activation at 10 µM came to 112%.

Regarding `Cn1ccc(NC(=O)c2cc(Oc3cnc(C(=O)N4CCC4)nc3)c3c(c2)OC(C)(C)C3)n1` [Example 172, 4-[2-(Azetidine-1-carbonyl)-pyrimidin-5-yloxy]-2,2-dimethyl-2,3-dihydro-benzofuran-6-carboxylic acid (1-methyl-1H-pyrazol-3-yl)-amide], the concentration giving a half-maximal response (EC50) is 480 nM and the Emax worked out at 169%. Further, the activation at 10 µM under setting [1] was found to be 186%.

For `CC1(C)Cc2c(Oc3ccc(S(C)(=O)=O)cc3)cc(C(=O)Nc3nnc(C4CC4)s3)cc2O1` [Example 28, 4-(4-Methanesulfonyl-phenoxy)-2,2-dimethyl-2,3-dihydro-benzofuran-6-carboxylic acid(5-cyclopropyl-[1,3,4]thiadiazol-2-yl)-amide], the 50% effective concentration (EC50) is 2000 nM and the Emax came to 158%. Besides, the activation at 10 µM under setting [1] came to 123%.

`Cn1ccc(NC(=O)c2cc(Oc3cc(F)ccc3C(=O)N3CCC3)c3c(c2)OC(C)(C)C3)n1` [Example 34, 4-[2-(Azetidine-1-carbonyl)-5-fluoro-phenoxy]-2,2-dimethyl-2,3-dihydro-benzofuran-6-carboxylic acid(1-methyl-1H-pyrazol-3-yl)-amide]: the EC50 is above 10000 nM. Besides, under setting [1], the activation at 10 µM is 75.1%.

Turning to `Cc1ccc(NC(=O)c2cc(Oc3ccc(C(=O)N(C)C)c(F)c3)c3cc(C)oc3c2)nc1` [Example 273, 4-(4-(Dimethylcarbamoyl)-3-fluorophenoxy)-2-methyl-N-(5-methylpyridin-2-yl)benzofuran-6-carboxamide], the activation at 10 µM under setting [1] came to 12.7%.

`Cc1ccc(NC(=O)c2cc(Oc3ccc(S(C)(=O)=O)cc3)c3cc(C)oc3c2)nc1` [Example 252, 2-Methyl-N-(5-methylpyridin-2-yl)-4-(4-(methylsulfonyl)-phenoxy)-benzofuran-6-carboxamide]: the EC50 turned out to be 778 nM and the Emax came to 107%. Under setting [1], the activation at 10 µM was 108%.

For `Cc1ccc(NC(=O)c2cc(Oc3ccc(S(C)(=O)=O)cc3)cc3occc23)nc1` [Example 7, 6-(4-Methanesulfonyl-phenoxy)-benzofuran-4-carboxylic acid(5-methyl-pyridin-2-yl)-amide], the EC50 was 3700 nM and the Emax was 129%. Further, the activation at 10 µM under setting [1] was determined as 99.7%.

Consider `CC(C)Oc1cc(C(=O)Nc2ccccn2)cc2c1CC(Cc1ccccc1)O2` (centres unmarked) [Example 220, 2-Benzyl-4-isopropoxy-2,3-dihydro-benzofuran-6-carboxylic acid pyridin-2-ylamide], for which the activation at 10 µM under setting [1] is 13.8%.

For `Cc1cc2c(Oc3ccc(C(=O)N(C)C)c(F)c3)cc(C(=O)Nc3ccn(C)n3)cc2o1` [Example 272, 4-(4-(Dimethylcarbamoyl)-3-fluorophenoxy)-2-methyl-N-(1-methyl-1H-pyrazol-3-yl)benzofuran-6-carboxamide], the EC50 worked out at 310 nM and the Emax was found to be 51%. The activation at 10 µM under setting [1] amounted to 49.6%.

With `CCNC(=O)c1ccc(Oc2cc(C(=O)Nc3ccn(C)n3)cc3c2CC(C)(C)O3)cc1F` [Example 70, 4-(4-Ethylcarbamoyl-3-fluoro-phenoxy)-2,2-dimethyl-2,3-dihydro-benzofuran-6-carboxylic acid(1-methyl-1H-pyrazol-3-yl)-amide], the EC50 came to 150 nM and the Emax came to 118%. The activation at 10 µM under setting [1] amounted to 132%.

Source of the values: patent US8119624B2, “Fused phenyl amido heterocyclic compounds” (Pfizer Inc., priority 2006, dated 2012).
